What follows are compounds tested against T1, HuNoV GII.4 VLP (Human calicivirus NLV/DIJON171/96, UniProt Q8QY55) (assay: SPR, Biacore T-200, VLP immobilized on CM5 chip).
T1 construct: full VP1 virus-like particle, self-assembled, from baculovirus (Bac-to-Bac) infected SF-9 cells, sucrose gradient purified; amine-coupled to CM5 chip
Format: binding
Excerpt: SPR, Biacore T-200, VLP immobilized on CM5 chip on HuNoV GII.4 VLP

SMILES | Kd [µM]
C[C@H](CCC(=O)O)[C@H]1CC[C@H]2[C@@H]3CC[C@@H]4C[C@H](O)CC[C@]4(C)[C@H]3C[C@H](O)[C@]12C [DCA] | 176 ± 4.9
C[C@H](CCC(=O)NCC(=O)O)[C@H]1CC[C@H]2[C@@H]3[C@H](O)C[C@@H]4C[C@H](O)CC[C@]4(C)[C@H]3CC[C@]12C [GCDCA] | 123 ± 24
C[C@H](CCC(=O)NCC(=O)O)[C@H]1CC[C@H]2[C@@H]3CC[C@@H]4C[C@H](O)CC[C@]4(C)[C@H]3C[C@H](O)[C@]12C [GDCA] | 286 ± 64.3
C[C@H](CCC(=O)NCCS(=O)(=O)O)[C@H]1CC[C@H]2[C@@H]3[C@H](O)C[C@@H]4C[C@H](O)CC[C@]4(C)[C@H]3CC[C@]12C [TCDCA] | 236 ± 58
C[C@H](CCC(=O)NCCS(=O)(=O)O)[C@H]1CC[C@H]2[C@@H]3CC[C@@H]4C[C@H](O)CC[C@]4(C)[C@H]3C[C@H](O)[C@]12C [TDCA] | 308 ± 29.7
C[C@H](CCC(=O)NCCS(=O)(=O)O)[C@H]1CC[C@H]2[C@@H]3CC[C@@H]4C[C@H](O)CC[C@]4(C)[C@H]3CC[C@]12C [TLCA] | 64 ± 9.9

Source: article PMC13288469, “Bile acids accumulate norovirus-like particles and enhance binding to and entry into human enteric epithelial cells” (Journal of Virology, 2026)
